# Assay results from patent publication US12115171B2, “Combination therapies and methods of use thereof for treating cancer” (Massachusetts Institute of Technology, priority 2014, dated 2024).
# Where two headings read alike, the source gives them in different places.
# Tests used:
# LNCaP = experiment: Cell-Titer Glo viability, LNCaP; type: cell-based, human; settings: for effect on cell killing by 10 μM Abiraterone: 10, 20 and 40 μM SB203580 (FIG. 13B)
# Experimental: (§1) Twenty four hours later, the indicated concentration of BI2536 and R1881 were added, representing time zero. Viability of the prostate cancer cells was assessed using Cell-Titer Glo™ according to the manufacturer's instructions.
# (§2) Cell viability was assessed after 5 days using Cell-Titer Glo™ according to the manufacturer's instructions.
# (§3) Cell viability was assessed after 4 days using Cell-Titer Glo™ according to the manufacturer's instructions.
# Experiments were conducted to investigate the role of the p38MAPK-MK2 pathway in prostate cancer, Western blotting was used to investigate up-regulation of MK3 and MK5 protein levels in LNCaP cells after MK2 knock down using shRNA.
# 22 RV1 = experiment: Cell-Titer Glo viability, 22 RV1; type: cell-based; settings: for effect on cell killing by 10 μM Abiraterone: 10, 20 and 40 μM SB203580 (FIG. 13B)
# Experimental: Cell viability of PCa cell lines to increasing doses (10, 20 and 40 μM) of the p38MAPK inhibitor SB203580, as measured using Cell Titer Glo (FIG. 13A).
# C4-2 = experiment: Cell-Titer Glo viability, C4-2; type: cell-based, human; settings: for effect on cell killing by 10 μM Abiraterone: 10, 20 and 40 μM SB203580 (FIG. 13B); for relative levels of proliferation: 5 nM BI2536, 10 μM abiraterone, alone or in combination, FBS, 5 days post-administration (FIG. 4)
# Experimental: as §1
# Viability was measured for the subsequent five days using Cell-Titer Glo™ according to the manufacturer's instructions.
# as §2, §3
# PSA expression = PSA expression by qPCR in C4-2 CRPC cells; type: cell-based, human; settings: 10 μM abiraterone, 5 nM BI2536, alone or combined; 24 hours; FBS (FIG. 8)
# Description: RNA was isolated for analysis by qPCR.
# [1] = system: several tumor cell lines, including those that express multidrug-resistant protein 1 (MDR1); settings: cited from earlier work
# cell mitosis = settings: read-out: EC50 inhibition of cell mitosis; cited from earlier work
# [2] = system: Cdc25C-T96 phosphorylation; settings: read-out: EC50 Cdc25C-T96 phosphorylation; cited from earlier work
# Plk1 = Plk1 (Homo sapiens, UniProt P53350); settings: cited from earlier work
# Plk1, sequence (P53350 whole entry): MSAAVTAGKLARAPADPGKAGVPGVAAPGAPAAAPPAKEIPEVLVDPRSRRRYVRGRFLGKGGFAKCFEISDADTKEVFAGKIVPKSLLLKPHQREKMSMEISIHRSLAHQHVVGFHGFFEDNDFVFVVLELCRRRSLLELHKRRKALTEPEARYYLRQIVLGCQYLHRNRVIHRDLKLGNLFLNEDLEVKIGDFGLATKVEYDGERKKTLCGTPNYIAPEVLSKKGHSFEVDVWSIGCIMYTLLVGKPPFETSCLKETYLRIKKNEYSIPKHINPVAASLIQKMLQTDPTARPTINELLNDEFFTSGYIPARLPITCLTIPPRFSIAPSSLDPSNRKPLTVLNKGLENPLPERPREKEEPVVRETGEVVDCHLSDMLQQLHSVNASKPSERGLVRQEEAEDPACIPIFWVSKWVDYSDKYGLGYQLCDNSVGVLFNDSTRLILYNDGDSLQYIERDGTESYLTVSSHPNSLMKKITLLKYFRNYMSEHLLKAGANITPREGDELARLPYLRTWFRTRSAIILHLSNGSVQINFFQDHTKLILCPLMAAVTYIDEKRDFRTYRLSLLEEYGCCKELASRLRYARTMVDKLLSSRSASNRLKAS
# mouse xenograft models = settings: 10 mg/kg and 20 mg/kg on days 1 and 28; cited from earlier work
# [3] = system: various human tumor cell lines; settings: cited from earlier work
# [4] = system: HT-29 human colorectal tumors; settings: cited from earlier work
# [5] = cited from earlier work
# [6] = system: Bel-7402, MCF-7, and MIA-PaCa cells; settings: 250 mg/kg; cited from earlier work
# [7] = cited from earlier work; remark: listed apart in the source
# BT20 cells = settings: 200 mg/kg; cited from earlier work
# [8] = molecular target: several tyrosine kinases and cyclin-dependent kinase 1 (Cdk1); settings: cited from earlier work
# [9] = cited from earlier work; remark: listed apart in the source
# xenograft tumor models = settings: under proper dose scheduling; cited from earlier work
# cell culture = settings: cited from earlier work
# [10] = system: cell lines, representative of both solid and hematological tumors; settings: cited from earlier work
# [11] = 24 to 48 mg/m^2 for 5 consecutive days every 4 weeks; cited from earlier work
# [12] = cited from earlier work; remark: listed apart in the source
# A549 = settings: twice-weekly; cited from earlier work
# BxPC-3 = settings: twice-weekly; cited from earlier work
# [13] = cited from earlier work; remark: listed apart in the source
# [14] = other studies; cited from earlier work
# HCT 116 xenografts = settings: cited from earlier work
# [15] = cited from earlier work; remark: listed apart in the source
# [16] = in combination with afatinib; cited from earlier work
# [17] = system: panel of >50 other kinases; settings: concentrations up to 10 μM, in vitro; cited from earlier work
# [18] = system: multiple human carcinoma xenografts including HCT 116, NCI-H460, and taxane-resistant CXB1 colon carcinoma; settings: ~25 mg/kg/day; cited from earlier work
# [19] = cited from earlier work; remark: listed apart in the source
# [20] = increasing concentrations of BI2536, csFBS (FIG. 3A)
structure (smiles),measurement,setting,value
C[S+]([O-])c1ccc(-c2nc(-c3ccncc3)c(-c3ccc(F)cc3)[nH]2)cc1 (centres unmarked) [SB203580],"cell death, p38MAPK inhibition alone","LNCaP; 10, 20 and 40 μM (FIG. 13A)",small amounts of cell death
same,effect on cell killing by 10 μM Abiraterone,LNCaP,additive
same,effect on cell killing by 10 μM Abiraterone,LNCaP; listed as p38MAPK inhibitor,modestly enhanced
same,"cell death, p38MAPK inhibition alone","22 RV1; 10, 20 and 40 μM (FIG. 13A)",small amounts of cell death
same,effect on cell killing by 10 μM Abiraterone,22 RV1,additive
same,effect on cell killing by 10 μM Abiraterone,22 RV1; listed as p38MAPK inhibitor,modestly enhanced
same,"cell death, p38MAPK inhibition alone","C4-2; 10, 20 and 40 μM (FIG. 13A)",small amounts of cell death
same,effect on cell killing by 10 μM Abiraterone,C4-2,additive
same,effect on cell killing by 10 μM Abiraterone,C4-2; listed as p38MAPK inhibitor,modestly enhanced
C[C@]12CC[C@H](O)CC1=CC[C@@H]1[C@@H]2CC[C@]2(C)C(c3cccnc3)=CC[C@@H]12 [abiraterone],PSA expression,PSA expression,substantially decreased
same,sensitivity to Abiraterone in the absence of BI2536,"22 RV1; five days, csFBS",relatively resistant
same,relative levels of proliferation,C4-2,reduced over time
same,sensitivity to Abiraterone in the absence of BI2536,"C4-2; five days, csFBS",relatively resistant
"CC(=O)O[C@@]12CO[C@@H]1C[C@H](O)[C@@]1(C)C(=O)[C@H](O)C3=C(C)[C@@H](OC(=O)[C@H](O)[C@@H](NC(=O)OC(C)(C)C)c4ccccc4)C[C@@](O)([C@@H](OC(=O)c4ccccc4)[C@H]21)C3(C)C [Docetaxel, docetaxel]",synergy with Abiraterone (% viability),"LNCaP; 5 nM docetaxel, increasing abiraterone, 4 days, FBS (FIG. 7A)",did not synergize with Abiraterone
same,synergy with Abiraterone (% viability),"22 RV1; 5 nM docetaxel, increasing abiraterone, 4 days, csFBS (FIG. 7B)",did not synergize with Abiraterone
same,synergy with Abiraterone (% viability),"C4-2; 5 nM docetaxel, increasing abiraterone, 4 days, csFBS (FIG. 7C)",did not synergize with Abiraterone
COc1cc(C(=O)NC2CCN(C)CC2)c(F)cc1Nc1ncc2c(n1)N(C1CCCC1)CC(F)(F)C(=O)N2C [TAK-960],activity in tumor cell lines,[1],has shown activity
Cc1ncc(CCCN(C)C)cc1Nc1ncc2c(n1)-c1ccc(C(F)(F)F)cc1NC(=S)C2 [MLN0905],EC50,cell mitosis,9 nM
same,EC50,[2],29 nM
COc1ccc(S(=O)(=O)Nc2ccccc2/C=C/c2cc[n+]([O-])cc2)cc1 [HMN-176],direct inhibition of the enzymatic activity of Plk1,Plk1,does not directly inhibit the enzymatic activity of Plk1
same,antitumor activity,mouse xenograft models,potent antitumor activity
same,cytotoxicity,[3],potent cytotoxicity
C[C@]1(O)CC[C@H]2[C@@H]3CCC4=CC(=O)CCC4=C3C=C[C@@]21C [R1881],proliferation over time in the presence of BI2536 and synthetic androgen,"LNCaP; 5 nM BI2536, csFBS (FIG. 3B)",somewhat rescued
same,viability in the presence of BI2536 and synthetic androgen,LNCaP; csFBS (FIG. 3A),somewhat rescued
same,proliferation over time in the presence of BI2536 and synthetic androgen,"C4-2; 5 nM BI2536, csFBS (FIG. 3B)",somewhat rescued
same,viability in the presence of BI2536 and synthetic androgen,C4-2; csFBS (FIG. 3A),somewhat rescued
COc1cc(C(=O)NC2CCN(C)CC2)ccc1Nc1ncc2c(n1)N(C1CCCC1)CC(F)(F)C(=O)N2C [RO3280],antitumor activity,[4]; dosed more frequently,complete tumor regression
same,tumor growth inhibition,[4]; once weekly at 40 mg/kg,72%
"CC(=O)O[C@H]1CC[C@@]2(C)C(=CC[C@@H]3[C@@H]2CC[C@]2(C)C(c4cccnc4)=CC[C@@H]32)C1 [Abiraterone acetate, abiraterone acetate]",solubility in water,[5],practically insoluble in water
COc1cc(OC)c(/C=C/S(=O)(=O)Cc2ccc(OC)c(NCC(=O)[O-])c2)c(OC)c1.[Na+] [ON 01910],tumor growth,[6],inhibited tumor growth
same,DLT,[7]; at the MTD,Grade 3 abdominal pain
same,MTD,"[7]; i.v. days 1, 4, 8, 11, 15, and 18 in 28-day cycles","3,120 mg"
same,tumor growth,BT20 cells,inhibition of tumor growth
same,IC50,[8],18 to 260 nM
C[C@@H](Oc1cc(-n2cnc3ccc(CN4CCN(C)CC4)cc32)sc1C(N)=O)c1ccccc1C(F)(F)F [GSK461364],DLTs,[9]; in vivo,"grade 4 neutropenia, sepsis, and pulmonary embolism"
same,incidence of venous thrombotic emboli,[9]; in vivo,20%
same,final recommended phase II dose,"[9]; intravenously, schedule A (days 1, 8, and 15 of 28-day cycle)",225 mg
same,effect in xenograft tumor models,xenograft tumor models,tumor regression
same,nature of cell culture growth inhibition,cell culture,cytostatic or cytotoxic
CN1CCN(c2ccc(OC(F)(F)F)c(Nc3ncc4c(n3)-c3c(c(C(N)=O)nn3CCO)CC4)c2)CC1 [NMS 1286937],potency in proliferation assays,[10],low nanomolar activity
COc1ccc(S(=O)(=O)N(C(C)=O)c2ccccc2/C=C/c2cc[n+]([O-])cc2)cc1 [HMN-214],DLTs,[11],"prolonged neutropenia, febrile neutropenia, neutropenic sepsis, electrolyte disturbance, neuropathy, and myalgia"
same,dose-limiting toxicities,[12]; 9.9 mg/m^2/d,severe myalgia/bone pain syndrome and hyperglycemia
same,maximum tolerated dose and recommended dose,[12]; continuous 21-day dosing schedule every 28 days,8.0 mg/m^2/d
CC[C@@H]1C(=O)N(C)c2cnc(Nc3ccc(C(=O)NC4CCN(C)CC4)cc3OC)nc2N1C1CCCC1 [BI2536],T/C,A549,14%
same,PSA expression,PSA expression,did not suppress PSA expression
same,T/C,BxPC-3,5%
same,maximum tolerated dose,[13]; day 1 schedule,350 mg
same,maximum tolerated dose,[13]; days 1+8 schedule,200 mg
same,proliferation over time,"LNCaP; 5 nM BI2536, csFBS (FIG. 3B)",reduced
same,viability,LNCaP; [20],reduced
same,MTD,[14],50 to 70 mg
same,T/C,HCT 116 xenografts; 50 mg/kg once per week,15%
same,T/C,HCT 116 xenografts; 50 mg/kg twice per week,0.3%
same,safety profile,[15]; 200 mg combined with standard-dose pemetrexed,acceptable safety profile
same,dose-limiting toxicities (DLT),[15]; 325 mg with pemetrexed,grade 3 pruritus and rash; grade 4 neutropenia
same,maximum tolerated dose (MTD),"[15]; in combination with 500 mg/m^2 pemetrexed, day 1 every 3 weeks, intravenous",300 mg
same,relative levels of proliferation,C4-2,reduced over time
same,proliferation over time,"C4-2; 5 nM BI2536, csFBS (FIG. 3B)",reduced
same,viability,C4-2; [20],reduced
CC[C@@H]1C(=O)N(C)c2cnc(Nc3ccc(C(=O)N[C@H]4CC[C@H](N5CCN(CC6CC6)CC5)CC4)cc3OC)nc2N1C(C)C [BI6727],MTD,[16],300 mg
same,inhibitory activity against a panel of >50 other kinases,[17],no inhibitory activity
same,growth of xenografts,[18],significantly inhibits the growth
same,DLTs,"[19]; i.v. once every 3 weeks, 12-450 mg","neutropenia, thrombocytopenia, and febrile neutropenia"
same,MTD,[19]; i.v. once every 3 weeks,400 mg
same,recommended dose for further development based on overall tolerability,[19]; in vivo,300 mg
